Test system: HSV-1
Assay: HSV-1 plaque reduction, method D: replication period
Assay type: cell-based, herpes simplex virus type-1
Description: Plaque assays were performed with monolayer cultures of Vero cells in 24-well culture plates. For plaque reduction assay, cell monolayer was infected with virus (30 pfu/well) and incubated at 37° C. with 5% CO2 for one hour. The infected cell monolayer was then washed with PBS and overlaid with overlapping solution (maintenance medium containing 1% methylcellulose and various concentrations of indicated compounds). After 72 h of incubation at 37° C., cell monolayer was fixed with 5% paraformaldehyde and stained with 0.8% crystal violet. Plaques were counted and the percentage of inhibition was calculated as [(Pc−Pe)/Pc]100, where Pc and Pe refer to the plaque number in the absence and presence of the compound, respectively. The minimal concentration of compounds required to reduce 50% of plaque numbers (IC50) was also calculated. Cells and viruses (HSV-1) were incubated with acyclovir and various extracts at different stages during the viral infection cycle in order to determine the antiviral action mode (Koch et al., 2008). (A) For virus pretreatment assay, the virus suspension was incubated in a medium containing different concentrations of the extracts for one hour at 37° C. prior to infection of Vero cells. […] The antiviral activity of non-cytotoxic plant extracts was determined against HSV-1 in vitro. […] Then, the cells were washed and quantified using resazurin.

Nc1nc2c(ncn2COCCO)c(=O)[nH]1 [Acyclovir]
inhibition at 100 µg/mL (Human alphaherpesvirus 1, 72 h, at 100 μg/ml, replication period (extracts added after infection, stay 3 days on cells), Vero cells, read-out: Inhibitory percentage of lysis plaques, D): 100% | Protection of VERO cells against infection (positive control) (dose of 0.75 μg/ml): protects VERO cells against infection

Source: patent publication US10716821B2, “Use of plant extracts against herpes simplex virus” (UNIVERSITÉ DU QUÉBEC À CHICOUTIMI, priority 2013, dated 2020)
